We go through 1 cell line from the supplement of paper PMC10307832.

What all share (experiment): relative viability (nuclei count vs DMSO), 5 days (fraction); higher = more cells survive
Compound in test [1]: Cc1nc(C(=O)NCC(=O)O)c(O)c2ccc(Oc3ccccc3)cc12 [FG-4592] + COc1cc2c(Oc3ccc(NC(=O)C4(C(=O)Nc5ccc(F)cc5)CC4)cc3F)ccnc2cc1OCCCN1CCOCC1 [Foretinib] (partner 0.25 µM)
In a few lines: (§1)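 Relative viability was taken as the ratio of nuclei in treated wells to nuclei in vehicle wells. Lung cancer cell lines in 1536-well plates received compounds by pin tool one day after seeding, either one drug alone or a fixed anchor-drug dose plus five library-drug doses (not always all listed) in √10 steps. Nuclei were counted on 4× images after 5 days of treatment, and values are medians of duplicate plates.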

Compound in test [2]: CC1=CC(=C(N1C2=CC=C(C=C2)Cl)C)C(=O)CN3CCCCC3 [IU1-47] + CC(C)C[C@H](NC(=O)[C@H](Cc1ccccc1)NC(=O)c1cnccn1)B(O)O [Bortezomib] (partner 0.002 µM)
Summed up: as §1

Compound in test [3]: CC1=CC(=C(N1C2=CC=C(C=C2)Cl)C)C(=O)CN3CCCCC3 [IU1-47] + COc1cccc2cc(-c3nc([C@H]4CC[C@H](C(=O)O)CC4)n4ncnc(N)c34)[nH]c12 [OSI-027] (partner 0.5 µM)
In a few lines:
as §1

Compound in test [4]: CC1=CC(=C(N1C2=CC=C(C=C2)Cl)C)C(=O)CN3CCCCC3 [IU1-47] + N=C(N)NC(=N)NCCc1ccccc1 [Phenformin] (partner 250 µM)
Summed up:
as §1

Consider UMC-11, for which the relative viability in test [1] (first compound 0.08 µM) stood at 1.06; in test [1] (first compound 0.253 µM), 1.03; in test [1] (first compound 0.8 µM), 0.918; in test [1] (first compound 2.53 µM) it was 1.03; in test [1] (first compound 8 µM), 0.671; in test [2] (first compound 0.08 µM) it was 0.653. Moreover, the relative viability in test [2] (first compound 0.253 µM) is 0.618; in test [2] (first compound 0.8 µM), 0.673; in test [2] (first compound 2.53 µM), 1.04; in test [2] (first compound 8 µM) it was 0.575; in test [3] (first compound 0.08 µM) it was 0.498; in test [3] (first compound 0.253 µM), 0.43. Besides, the relative viability came out at 0.523 in test [3] (first compound 0.8 µM); 0.611 in test [3] (first compound 2.53 µM); 0.465 in test [3] (first compound 8 µM); 0.315 in test [4] (first compound 0.08 µM); 0.326 in test [4] (first compound 0.253 µM); 0.322 in test [4] (first compound 0.8 µM). Moreover, the relative viability in test [4] (first compound 2.53 µM) amounted to 0.349; in test [4] (first compound 8 µM), 0.367.
